The text below walks through data of US8466172B2, “Stabilization of hypoxia inducible factor (HIF) alpha” (FibroGen, Inc., priority 2001, dated 2013).

The subject of test [1] is Wistar rats, acute myocardial infarction (AMI). Put plainly: Cardiac ischemia Experiment I, 10-week study after acute myocardial infarction. It counts as in vivo, rat. As to the method: Alternatively, one hundred forty adult male Wistar rats (200-250 g) were anaesthetized and subjected to left coronary artery occlusion to produce AMI. Forty-eight hours after surgery, 2DE images were obtained and animals with a significant area of infarction were randomized to treatment with compound A (n=34) or vehicle (n=34).
Animals were treated by gavage 2 times per day for the duration of the experiment with compound A at 50 mg/kg or with vehicle alone. Serum level of drug was determined periodically to establish that treated animals received sufficient and consistent amount of drug and that the measured levels were sufficient to inhibit prolyl 4-hydroxylase.
Digital mid-papillary muscle and apical four chamber 2DE images were obtained biweekly on half of the animals in each group until week 8. Two observers blinded to treatment did measurements off-line. For the measurements, the digital images were slowed and frozen at end systole and end diastole. Two to three endocardial surfaces were traced in both the short axis and four chamber views and averaged. The left ventricular area in systole and diastole, ejection fraction, fractional area change, wall thickness, mitral peak E wave velocity, aortic peak velocity, and infarct size were measured.
After 10 weeks of treatment, in vivo hemodynamic measurements were determined and hearts were excised and weighed as described below.
To collect in vivo hemodynamic measurements, animals were anaesthetized and the right carotid artery was dissected free from surrounding tissues and canulated with an SPR-671 ultra-miniature pressure transducer (Millar Instruments, Inc., Houston Tex.). The catheter was then advanced into the left ventricle. After steady state was established, baseline heart rate (HR), developed pressure (DP), contractile index (CI), left ventricle systolic pressure (SBP) and end diastolic pressure (LVEDP), and maximal rate of pressure rise and fall (+dP/dt and −dP/dt, respectively) were recorded.
Following hemodynamic measurement, hearts were excised and weighed. Pieces of scarred myocardium, and right ventricle and left ventricle myocardium distant from the site of infarct were dissected out and weighed. Hydroxyproline and proline were determined by the method of Palmerini et al. (1985, J Chromatogr 339:285-92) except that L-azetidine-2-carboxylic acid (Sigma-Aldrich) was substituted for 3,4-dehydroproline as the internal standard.

Test [2] deals with HIF-regulated genes. Kind of test: Expression of HIF-regulated genes in vivo, Murine genome U74AV2 array. More on the design: species or system mouse. The settings on record: 100 mg/kg oral gavage. As to the method:
Twenty four Swiss Webster male mice (30-32 g) were obtained from Simonsen, Inc., and treated by oral gavage with a 4 ml/kg volume of either 0.5% CMC (Sigma-Aldrich) (0 mg/kg/day) or […] Compound A (25 mg/ml in 0.5% CMC) (100 mg/kg). At 4, 8, 16, 24, 48, or 72 hours after the final dose, animals were anesthetized with isoflurane and a blood sample was collected from the abdominal vein. The blood sample was collected into a MICROTAINER serum separator tube (Becton-Dickinson, Franklin Lakes N.J.), incubated at room temperature for 30 minutes, centrifuged at 8,000 rpm at 4° C. for 10 min, and cell pellet was resuspended in […] solution (Ambion) and stored at −80° C. The mice were then sacrificed and tissue samples of kidney, liver, brain, lung, and heart were isolated and stored in […] solution (Ambion) at −80° C.
RNA isolation was carried out using the following protocol. […] The RNA was eluted into 80 μL of water and quantitated with RIBOGREEN reagent (Molecular Probes, Eugene Oreg.). […] The absorbance at 260 and 280 nm was measured to determine RNA purity and concentration.
Alternatively, tissue samples were diced and homogenized in TRIZOL reagent (Invitrogen Life Technologies, Carlsbad Calif.) using a rotor-stator POLYTRON homogenizer (Kinematica). […] The absorbance at 260 and 280 nm was measured to determine RNA purity and concentration. […]

The subject of test [3] is vascular endothelial growth factor (VEGF). Kind of test: VEGF expression in conditioned media, QUANTIKINE immunoassay. It counts as cell-based, human. The settings on record: HFF, 293A and Hep3B cells. As to the method:
When cell layers reached confluence, the media was replaced with OPTI-MEM media (Invitrogen Life Technologies, Carlsbad Calif.) and cell layers were incubated for approximately 24 hours in 20% O2, 5% CO2 at 37° C. Compound of the invention (one of compounds A to O) or DMSO (0.5 to 1%) was then added to existing medium, and incubation was continued overnight.
Conditioned media collected from cell cultures grown as in Example 1 was analyzed for vascular endothelial growth factor (VEGF) expression using a QUANTIKINE immunoassay (R&D Systems) according to the manufacturer's instructions. […] Values on the y-axis represent fold-induction relative to control and are reported on a log2 scale, such that a value of 1 represents 2-fold induction.

For `O=C(O)c1c[nH]c2c(ccc3cccnc32)c1=O` [Compound A, 4-oxo-1,4-dihydro-[1,10]phenanthroline-3-carboxylic acid], the “deaths immediately following insult to the heart (FIG. 8)” value in test [1] (50 mg/kg gavage 2 times per day, n=34) is “no deaths”. Besides, the “percent of treated group still alive” value in test [1] (8 weeks after myocardial infarction, 50 mg/kg gavage 2 times per day) is recorded as “over 90%”. For the same molecule, in test [1] (10 weeks post-MI), the “+dP/dt” value was 6701 ± 331 mm Hg/sec, the Developed pressure was determined as 97 ± 3 mm Hg, the “Hydroxyproline/proline in infarct scar” value is 0.471 ± 0.024 and the “Hydroxyproline/proline in non-infarct left ventricular myocardium” value is listed as 0.099 ± 0.025. In addition, in test [1] (10 weeks post-MI), the “Hydroxyproline/proline in non-infarct right ventricular myocardium” value was determined as 0.152 ± 0.044, the “Systolic BP” value is on record as 106 ± 4 mm Hg and the “−dP/dt” value came out at 6395 ± 373 mm Hg/sec. Moreover, the “left ventricular ejection fraction (LVEF)” value in test [1] (at randomization) turned out to be 33%. The “relative reduction in mortality” value in test [1] (treated relative to untreated group, weeks 2 through 8) was 77%. Moreover, the “left ventricular ejection fraction (LVEF) relative to untreated controls (FIG. 10A)” value in test [1] (weeks 2 through 8) is reported as “statistically significant improvement”. For the same molecule, in test [2] (mouse kidney), the “expression of genes encoding glycolytic enzymes (FIG. 7A)” value is recorded as “increased”. In addition, the “expression of genes encoding angiogenic proteins (FIG. 5A)” value in test [2] (mouse lung) is “increased”. For the same molecule, in test [3], the “VEGF expression in conditioned media (FIG. 4A)” value was “increase in VEGF expression”.
